According to US10214507B2, “Carbazole-containing amides, carbamates, and ureas as cryptochrome modulators” (Reset Therapeutics, Inc., priority 2014, dated 2019):

Test system: stable U20S reporter cells harboring Per2-dLuc
Assay: Per2 assay for evaluating the potency of test compounds (circadian luciferase reporter)
Type: cell-based
Settings: amplitude of Per2-dLuc luminescence vs log concentration
Protocol: Compounds were screened by using a high-throughput circadian assay system as previously described in Zhang, E. E. et al. Cell, 2009, 139, 199-210. In brief, stable U20S reporter cells harboring Per2-dLuc were plated at a density of 30,000 cells/well in Corning 96-well, solid white, flat bottom, TC-treated microplates (Corning®), and incubated for 48 hours at 37° C. in the presence of 5% CO2 in a medium of Dulbecco's Modified Eagle Medium (DMEM) supplemented with 10% fetal bovine serum (FBS) and penicillin (100 units/mL)-streptomycin (100 μg/mL). […] DMSO stocks are then serially diluted in DMSO, typically diluting 3-fold for each dilution step. Following the 48 h period, cell culture medium is removed from plated cells and cells are synchronized with 200 μL/well of complete cell culture medium (described above), supplemented with 5 μM forskolin (Tocris®) and 1 mM beetle luciferin (Promega®). Immediately following synchronization, 1 μL of compound dilution is added to each well. Plates are sealed, shaken briefly, and gene expression was monitored by measuring luminescence (Tecan® Infinite M200 or Tecan® Infinite M200 Pro) continuously for a minimum of 3 days at 35° C. Raw luminescence data (counts) are first analyzed using Multicycle™ software (Actimetrics, Inc.) to determine the amplitude (amp), period, and phase (phz) for each compound concentration. The period length for control wells (i.e. no compound, DMSO only) should be 26-30 h. Amp data are then plotted against the logarithm compound concentration (M) and analyzed by nonlinear regression analysis to determine the EC50.

O=C1C(C2CCCC2)CCN1CC(O)Cn1c2ccc(F)cc2c2cc(F)ccc21 (stereo not drawn) [Compound 18, 3-cyclopentyl-1-(3-(3,6-difluoro-9H-carbazol-9-yl)-2-hydroxypropyl)pyrrolidin-2-one]
EC50: 0.338 µM

C[C@H]1CCC(=O)N(C[C@H](O)Cn2c3ccccc3c3ccccc32)C1 [Compound 129, (S)-1-((R)-3-(9H-carbazol-9-yl)-2-hydroxypropyl)-5-methylpiperidin-2-one]
EC50: 0.748 µM

O=C1[C@H]2CC[C@H](C2)N1C[C@@H](O)Cn1c2ccccc2c2ccccc21 [Compound 108, (1R,4S)-2-((S)-3-(9H-carbazol-9-yl)-2-hydroxypropyl)-2-azabicyclo[2.2.1]heptan-3-one]
EC50: 0.75 µM

CC(O)(CN1CCC(F)C1=O)Cn1c2ccc(F)cc2c2cc(F)ccc21 (stereo not drawn) [Compound 10, 1-(3-(3,6-difluoro-9H-carbazol-9-yl)-2-hydroxy-2-methylpropyl)-3-fluoropyrrolidin-2-one]
EC50: 0.487 µM

CC(O)(CN1CCCC(F)(F)C1=O)Cn1c2ccc(F)cc2c2cc(F)ccc21 (stereo not drawn) [Compound 14, 1-(3-(3,6-difluoro-9H-carbazol-9-yl)-2-hydroxy-2-methylpropyl)-3,3-difluoropiperidin-2-one]
EC50: 0.541 µM

O=C1N(CC(O)Cn2c3ccc(F)cc3c3cc(F)ccc32)CCN1C1CCC1 (stereo not drawn) [Compound 93, 1-cyclobutyl-3-(3-(3,6-difluoro-9H-carbazol-9-yl)-2-hydroxypropyl)imidazolidin-2-one]
EC50: 0.129 µM

CC1CCCN(CC(O)Cn2c3ccc(F)cc3c3cc(F)ccc32)C1=O (stereo not drawn) [Compound 27, 1-(3-(3,6-difluoro-9H-carbazol-9-yl)-2-hydroxypropyl)-3-methylpiperidin-2-one]
EC50: 0.478 µM

C[C@H]1CN(C[C@H](O)Cn2c3ccccc3c3ccccc32)C(=O)N1 [Compound 137, (S)-1-((R)-3-(9H-carbaxol-9-yl)-2-hydroxypropyl)-4-methylimidazolidin-2-one]
EC50: 0.766 µM

C[C@@](O)(CN1CC[C@@H](F)C1=O)Cn1c2ccccc2c2ccccc21 [Compound 123, (R)-1-((S)-3-(9H-carbazol-9-yl)-2-hydroxy-2-methylpropyl)-3-fluoropyrrolidin-2-one]
EC50: 0.311 µM

CCC1CCC(=O)N1CC(O)Cn1c2ccc(F)cc2c2cc(F)ccc21 (stereo not drawn) [Compound 32, 1-(3-(3,6-difluoro-9H-carbazol-9-yl)-2-hydroxypropyl)-5-ethylpyrrolidin-2-one]
EC50: 0.539 µM

CN1CCCN(CC(O)Cn2c3ccc(F)cc3c3cc(F)ccc32)C1=O (stereo not drawn) [Compound 6, 1-(3-(3,6-difluoro-9H-carbazol-9-yl)-2-hydroxypropyl)-3-methyltetrahydropyrimidin-2(1H)-one]
EC50: 0.719 µM

O=C1N(CC(O)Cn2c3ccc(F)cc3c3cc(F)ccc32)CCCN1c1ccccc1 (stereo not drawn) [Compound 75, 1-(3-(3,6-difluoro-9H-carbazol-9-yl)-2-hydroxypropyl)-3-phenyltetrahydropyrimidin-2(1H)-one]
EC50: 0.171 µM

CCN1CCCN(CC(O)Cn2c3ccc(F)cc3c3cc(F)ccc32)C1=O (stereo not drawn) [Compound 86, 1-(3-(3,6-difluoro-9H-carbazol-9-yl)-2-hydroxypropyl)-3-ethyltetrahydropyrimidin-2(1H)-one]
EC50: 0.497 µM

O=C1[C@H]2CC[C@H](C2)N1C[C@H](O)Cn1c2ccc(F)cc2c2cc(F)ccc21 [Compound 105, (1R,4S)-2-((R)-3-(3,6-difluoro-9H-carbazol-9-yl)-2-hydroxypropyl)-2-azabicyclo[2.2.1]heptan-3-one]
EC50: 0.054 µM

O=C1C(C2CCC2)CCCN1CC(O)Cn1c2ccc(F)cc2c2cc(F)ccc21 (stereo not drawn) [Compound 51, 3-cyclobutyl-1-(3-(3,6-difluoro-9H-carbazol-9-yl)-2-hydroxypropyl)piperidin-2-one]
EC50: 0.265 µM

CC1(C)CC(=O)N(CC(O)Cn2c3ccc(F)cc3c3cc(F)ccc32)C1 (stereo not drawn) [Compound 31, 1-(3-(3,6-difluoro-9H-carbazol-9-yl)-2-hydroxypropyl)-4,4-dimethylpyrrolidin-2-one]
EC50: 0.832 µM

CC(O)(CN1CCCN(C2CCC2)C1=O)Cn1c2ccc(F)cc2c2cc(F)ccc21 (stereo not drawn) [Compound 81, 1-cyclobutyl-3-(3-(3,6-difluoro-9H-carbazol-9-yl)-2-hydroxy-2-methylpropyl)tetrahydropyrimidin-2(1H)-one]
EC50: 0.816 µM

O=C1N(CC(O)Cn2c3ccccc3c3ccccc32)CCCN1C1CC1 (stereo not drawn) [Compound 99, 1-(3-(9H-carbazol-9-yl)-2-hydroxypropyl)-3-cyclopropyltetrahydropyrimidin-2(1H)-one]
EC50: 0.555 µM

CC(O)(CN1CCCC(F)C1=O)Cn1c2ccc(F)cc2c2cc(F)ccc21 (stereo not drawn) [Compound 12, 1-(3-(3,6-difluoro-9H-carbazol-9-yl)-2-hydroxy-2-methylpropyl)-3-fluoropiperidin-2-one]
EC50: 0.909 µM

CC(C)N1CCCN(CC(O)Cn2c3ccc(F)cc3c3cc(F)ccc32)C1=O (stereo not drawn) [Compound 77, 1-(3-(3,6-difluoro-9H-carbazol-9-yl)-2-hydroxypropyl)-3-isopropyltetrahydropyrimidin-2(1H)-one]
EC50: 0.62 µM

O=C1C(c2ccccc2)CCCN1CC(O)Cn1c2ccc(F)cc2c2cc(F)ccc21 (stereo not drawn) [Compound 19, 1-(3-(3,6-difluoro-9H-carbazol-9-yl)-2-hydroxypropyl)-3-phenylpiperidin-2-one]
EC50: 0.547 µM

O=C1N(CC(O)Cn2c3ccc(F)cc3c3cc(F)ccc32)CCCN1C1CCCC1 (stereo not drawn) [Compound 76, 1-cyclopentyl-3-(3-(3,6-difluoro-9H-carbazol-9-yl)-2-hydroxypropyl)tetrahydropyrimidin-2(1H)-one]
EC50: 0.609 µM

CC(C)N1CCCN(CC(C)(O)Cn2c3ccc(F)cc3c3cc(F)ccc32)C1=O (stereo not drawn) [Compound 80, 1-(3-(3,6-difluoro-9H-carbazol-9-yl)-2-hydroxy-2-methylpropyl)-3-isopropyltetrahydropyrimidin-2(1H)-one]
EC50: 1.1 µM

C[C@H]1CCC(=O)N1C[C@H](O)Cn1c2ccccc2c2ccccc21 [Compound 112, (S)-1-((R)-3-(9H-carbazol-9-yl)-2-hydroxypropyl)-5-methylpyrrolidin-2-one]
EC50: 0.47 µM

CC1CCC(=O)N1CC(C)(O)Cn1c2ccc(F)cc2c2cc(F)ccc21 (stereo not drawn) [Compound 35, 1-(3-(3,6-difluoro-9H-carbazol-9-yl)-2-hydroxy-2-methylpropyl)-5-methylpyrrolidin-2-one]
EC50: 0.678 µM

C[C@@](O)(CN1CC[C@H](F)C1=O)Cn1c2ccccc2c2ccccc21 [Compound 124, (S)-1-((S)-3-(9H-carbazol-9-yl)-2-hydroxy-2-methylpropyl)-3-fluoropyrrolidin-2-one]
EC50: 0.309 µM

C[C@@H]1CCN(C[C@H](O)Cn2c3ccccc3c3ccccc32)C1=O [Compound 118, (R)-1-((R)-3-(9H-carbazol-9-yl)-2-hydroxypropyl)-3-methylpyrrolidin-2-one]
EC50: 0.12 µM

O=C1CCCN1CC(O)Cn1c2ccc(F)cc2c2cc(F)ccc21 (stereo not drawn) [Compound 7, 1-(3-(3,6-difluoro-9H-carbazol-9-yl)-2-hydroxypropyl)pyrrolidin-2-one]
EC50: 0.625 µM

O=C1N(CC(O)Cn2c3ccc(F)cc3c3cc(F)ccc32)CCN1C1CC1 (stereo not drawn) [Compound 92, 1-cyclopropyl-3-(3-(3,6-difluoro-9H-carbazol-9-yl)-2-hydroxypropyl)imidazolidin-2-one]
EC50: 0.527 µM

O=C1N(CC(O)Cn2c3ccccc3c3ccccc32)CCN1C1CCC1 (stereo not drawn) [Compound 96, 1-(3-(9H-carbazol-9-yl)-2-hydroxypropyl)-3-cyclobutylimidazolidin-2-one]
EC50: 0.493 µM
